Measurements published in US5171662A, “Method of detecting HIV protease activity” (priority 1991, dated 1992).
Non-standard residues stand in square brackets, D forms with d. Residues, ends and D or L forms follow the SMILES beside them. No end group written: not given here. *: point of attachment. Sta = CC(C)C[C@H](N)[C@@H](O)CC(=O)O; Isovaleryl = CC(C)CC(=O)*

Tests used:
HIV protease [1] = settings: cited from earlier work
HIV protease [2] = settings: cited from earlier work; remark: listed apart in the source
[3] = tested on: synthetic protease (99-residue peptide with the sequence proposed for the HIV protease); settings: cited from earlier work
HIV protease [4] = biological target: HIV protease (HIV-1 M:B_HXB2R, UniProt P04585); assay: Cleavage of tetradecapeptide substrate by HIV protease, Ang I determined by RIA; format: biochemical
Excerpt: The tetradecapeptide (TDP) substrate, Asp-Arg-Val-Tyr-Ile-His-Pro-Phe-His-Leu-Leu-Val-Tyr-Ser, was obtained from Peninsula Laboratories, Inc., Belmont, Calif. The Ang I RIA kit was purchased from Baxter Health Care Corporation, Cambridge, Mass. Recombinant HIV-1 protease was purified and refolded from E. coli as published previously (Tomasselli, A. G. et. al. (1990) Biochemistry 29, 264-269). The TDP substrate has an HIV protease cleavage site which when cut at the Leu-Leu bond produces authentic Ang I. The Ang I RIA kit detected the Angiotesin I if produced.
The various steps of the in vitro assay to screen a compound were performed as follows. The series of assays are done for each compound, each assay using a different concentration of compound. The various reagents were added to the system in the order which they are listed.
1. 52 μl assay buffer (0.1M Sodium Acetate, 10% glycerol, 3 mM EDTA, 5% ethylene glycol, 1 mg/ml BSA, pH 5.5)
2. 15 μl HIV-1 protease (final Concentration in assay 0.75 μg/ml). For inhibition studies, 12 μl of inhibitor solution was added prior to adding the enzyme.
3. 135 μl of 2.8 uM substrate (final concentration about 1.9 μM)
4. […]
5. […] Following an overnight equilibration at room temperature, the tubes are drained and the amount of radioactivity (^125 I-labeled Ang I) remaining on the tube is determined in a gamma counter. […]

Row | Molecule | inhibition of cleavage of gag precursor polyproteins by HIV protease (HIV protease [1]) | inhibition of autoprocessing which liberates the protease from the precursor (HIV protease [2]) | inhibition of proteolytic action of the synthetic protease [3] | cleavage of substrate by HIV protease (HIV protease [4])
1 | CC(C)CC(=O)N[C@H](C(=O)N[C@H](C(=O)N[C@@H](CC(C)C)[C@@H](O)CC(=O)N[C@@H](C)C(=O)N[C@@H](CC(C)C)[C@@H](O)CC(=O)O)C(C)C)C(C)C [pepstatin A] (Isovaleryl-VV[Sta]A[Sta]-OH) | can be inhibited by pepstatin A | can be inhibited | can be inhibited by pepstatin | 
2 | DRVYIHPFHLLVYS [TDP] |  |  |  | HIV protease cleaves the Ang I substrate
